Test results taken from patent US20050233470A1, “Methods and compound mixtures for determining protein activity using nmr spectroscopy” (priority 2002, published 2005).

Conditions: rat, in vivo
Procedure: Urine samples were collected immediately before administration and then at 1 h and 2.5 h after administration. […] Blood samples were collected immediately before administration and then at 1, 2 and 3 h after administration. After collection, blood samples were spun down at 2000 rpm for 10 min. and the plasma was collected. Both, plasma and urine samples were frozen at −20° C.
Aliquots of the stock solution ([…]) were mixed with 40 μl biofluid (urine or blood plasma) to give a 15 mM trityl radical solution. These solutions were dispensed as droplets into liquid nitrogen to provide the material as vitrified pellets suitable for hyperpolarisation. The solid samples were placed in turn within the DNP magnet and hyperpolarised overnight. The samples were dissolved by injection of a mixture of methanol and acetic acid (100:1). The dissolved samples were quickly manually transferred (approx. 4 s transfer time) to a high-resolution magnet of 9.4 T and single acquisition ^13C-1D-NMR-spectra were acquired.
Quantification of the unknown amount of probe compound/metabolites in the biofluid samples was based on these enhancements and the known amount of probe compound/metabolite used to generate them. […]

Signals present in NMR spectrum of urine sample	SMILES
present	N=C(N)N1Cc2ccccc2C(O)C1 (centres unmarked) [4-OH-Debrisoquine, 4-hydroxy-debrisoquine]
present	N=[13C](N)N1CCc2ccccc2C1 [Debrisoquine]
